# Measured values: patent publication EP3076168A1, “An electrochemical sensor” (Unisense Environment A/S, priority 2015, dated 2016)
# Experiments:
# [1] = Profiling: penetration of oxygen through candidate solution, measured with an OX10 oxygen microsensor; details: 0.1 M solution in propylene carbonate
# Method: The penetration of oxygen through the solution of the candidates was determined using an OX10 oxygen microsensor from Unisense A/S in conjunction with a microprofiling laboratory stand.
# A small capillary, cautiously filled with candidate solution in order to avoid bulk oxidation, was placed underneath the tip of the oxygen microsensor. The microprofiling stand was remotely controlled by the bundled software in order to move the microelectrode tip with five to ten micrometers between each concentration measurement. The microelectrode was calibrated prior to each candidate measurement using air-bubbled demineralised water and oxygen-free alkaline ascorbic acid solution.
# The microsensor was used to profile oxygen-free alkaline ascorbic acid solution prior to and after measurement of each candidate to 1) ensure that physical damage during candidate measurement could be detected and to 2) provide baseline signal for normalisation of candidate profiles.
# Each candidate profile was subtracted the baseline signal and normalised with respect to surface oxygen concentration in order to assess the candidate oxygen removal efficiency. A normalised signal of unity equals surface oxygen concentration and a normalised signal of 0.01 equals a dissolved oxygen concentration of 1 % of surface concentration.
# [2] = Solubility test of oxygen scavenger candidates (solvent added for a final 1 M, visual inspection of remaining solid); assay type: physicochemical; details: stated as substantially lower than 1 M
# Method: In other cases, solubility tests with acetonitrile instead of propylene carbonate was performed.
# In the case that solids remained after addition of solvent and vigorous stirring, the solubility of a candidate is assessed by visual inspection of the amount of remaining compound versus the amount of compound prior to solvent addition. In the case of a commercially available candidate dissolved in tetrahydrofuran (THF), the THF is removed under reduced pressure prior to addition of solvent.
SMILES,Oxygen profile depth [1],Concentration in propylene carbonate (PC) [2]
"c1ccc(Pc2ccccc2)cc1 [Candidate 1, Diphenylphosphine]",ca. 75 µm,–
"CC(C)(C)P(CCCC[N+]1(C)CCOCC1)C(C)(C)C.[Br-] [Candidate 10, N-[4-(di-tert-butylphosphino)butyl]-N-methylmorpholinium bromide]",–,lower than 1 M
